This note sets out measurements from US20220119460A1, “Means and Methods to Overrule Glucose-Mediated Repression of Respiration in Yeast” (priority 2019, published 2022).

Test [1] has as its system S. cerevisiae strain AN63. Nature of the test: Growth rate in stable sugar conditions (5% galactose) with antimycin A. Type of test: cell-based. To be noted: 41 respiratory deletion mutants, compared with slowest growing mutants without the compound (FIG. 2D). As for the experimental part:
(§1) All population growth measurements were performed using Bioscreen C machines (Growth Curves USA). For the gradual shift experiments, cells were inoculated in a 96-well plate containing YP plus 5% glucose (high-glucose [HG]) medium and serially diluted for growth overnight at 30° C. shaking at 900 rpm. Cultures at an OD600 of 0.1 were transferred to a new plate and serially diluted in fresh HG medium for growth overnight. The next day, cultures at an OD600 of 0.1 were washed three times into YP plus 0.5% glucose (low glucose [LG]) plus the appropriate carbohydrate source, with or without 3 μg/ml of antimycin A, and diluted so that the initial cell concentration for the Bioscreen C measurements was 10^5 cells/ml. OD600 measurements were taken every 15 min for 7 days or until the cultures reached stationary phase.
The same procedure was followed for the stationary growth experiments, replacing the HG medium from pregrowth and the final growth medium with 5% galactose. […]
(§2) The growth rate was then obtained by calculating the discrete derivative of In(OD600,me) versus time. […] In the case of two exponential phases in the growth curve (i.e., conditions with a mix of carbon sources in the medium), the maximum growth rate for each phase (maxR1, maxR2) was detected. Once these parameters were determined, the lag time was calculated by the time difference between two time points: the start and the end. […]

For test [2], the system named is S. cerevisiae strain AN63. Nature of the test: Population growth lag time measurement, gradual glucose-to-galactose shift with antimycin A. The class given is cell-based. Conditions: 3 μg/ml antimycin A in medium; 0.5% glucose plus 5% galactose; wild type and 41 respiratory deletion mutants (FIG. 2B). How it is done: Population Growth Lag Time Measurements (Antimycin a Treatment and Glucose-to-Galactose Shift).
as §1, with “OD600 measurements were taken every 15 min for 7 days or until the cultures reached stationary phase.” left out
where the cx subscript stands for corrected and the me subscript stands for measured.
as §2

For antimycin A, in test [1], the “growth rate in the presence of antimycin A” value is “equally low growth rates”. Moreover, in test [2], the “prolongation of the lag times” value is “up to 2.2 fold”.
